# Test results: patent publication US9126945B2, “N-(3-carbamoylphenly)-1H-pyrazole-5-carboxamide derivatives and the use thereof for controlling animal pests” (BAYER INTELLECTUAL PROPERTY GMBH, priority 2011, dated 2015)
# Columns and labels:
# [1] = system: Liriomyza trifolii; assay: Liriomyza trifolii spray test (LIRITR); assay type: in vivo; conditions: 168 h, 7 dat
# Excerpt: Liriomyza trifolii Spray Test (LIRITR)
# (§1) If the addition of ammonium salts or/and penetrants is required, these are in each case added in a concentration of 1000 ppm to the solution of the preparation.
# [2] = system: Myzus persicae; assay: Myzus test (MYZUPE spray treatment); assay type: in vivo
# Description: Myzus test (Myzupe spray treatment)
# After 6 days, the efficacy in % is determined.
# Myzus Test (MYZUPE Spray Treatment)
# [3] = system: Amblyomma hebraeum; assay: Amblyomma hebaraeum test (AMBYHE); assay type: in vivo; conditions: 100 ppm; after 42 days
# Description: Amblyomma hebaraeum Test (AMBYHE)
# (§2) Solvent: dimethyl sulphoxide
# Tick nymphs (Amblyomma hebraeum) are placed into perforated plastic beakers and immersed in the desired concentration for one minute. The ticks are transferred on filter paper into a Petri dish and stored in a climate-controlled cabinet.
# After 42 days, the kill in % is determined.
# [4] = system: Boophilus microplus females of the SP-resistant Parkhurst strain; assay: Boophilus microplus test (DIP); assay type: in vivo; conditions: 100 ppm
# Description: Boophilus microplus Test (DIP)
# Test animals: adult engorged Boophilus microplus females of the SP-resistant Parkhurst strain
# as §2
# 10 mg of active compound are dissolved in 0.5 ml of dimethyl sulphoxide. For the purpose of preparing a suitable formulation, the active compound solution is diluted with water to the concentration desired in each case.
# This active compound preparation is pipetted into tubes. 8-10 ticks are transferred into a further tube with holes. The tube is immersed into the active compound formulation, and all ticks are completely wetted. After the liquid has rum off, the ticks are transferred to filter discs in plastic dishes and kept in a climatized room. The activity is assessed after 7 days by laying of fertile eggs. Eggs whose fertility is not outwardly visible are stored in glass tubes in a climate-controlled cabinet until the larvae hatch. An efficacy of 100% means that none of the ticks has laid any fertile eggs.
# 10 mg of active compound are dissolved in 0.5 ml of dimethyl sulphoxide. For the purpose of preparing a suitable formulation, the active compound solution is diluted with water to the concentration desired in each case (in ppm).
# This active compound preparation is pipetted into tubes. 8-10 ticks are transferred into a further tube with holes. The tube is immersed into the active compound formulation, and all ticks are completely wetted. After the liquid has run out, the ticks are transferred onto filter discs in plastic dishes and stored in a climate-controlled room.
# The activity is assessed after the desired time by laying of fertile eggs. Eggs whose fertility is not evident from the outside are kept in glass tubes in a climate-controlled cabinet until the larvae have hatched. An effect of 100% means that none of the ticks has laid any fertile eggs.
# [5] = system: Frankliniella occidentalis; assay: Frankliniella occidentalis spray test (FRANOC); assay type: in vivo; conditions: 168 h, 7 dat
# Excerpt: Frankliniella occidentalis Spray Test (FRANOC)
# as §1
# [6] = system: Spodoptera frugiperda; assay: Spodoptera frugiperda test (SPODFR spray treatment), maize leaf discs; assay type: in vivo
# Excerpt: Spodoptera frugiperda Test (SPODFR Spray Treatment)
# [7] = system: Phaedon cochleariae; assay: Phaedon test (PHAECO spray treatment), Chinese cabbage leaf discs
# [8] = log P by HPLC, EEC Directive 79/831 Annex V.A8, method a); assay type: physicochemical; conditions: reversed-phase C18 HPLC column; cell marked a): HPLC, reversed-phase C18, acetonitrile/water with formic acid, gradient 10% to 95% acetonitrile
# Procedure, shortened: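 Reversed-phase C18 HPLC (50*4.6, 1.8 micron) per EEC Directive 79/831 Annex V.A8, acetonitrile/water with formic acid, gradient 10% to 95% acetonitrile over 4.25 min then 1.25 min hold; 55° C, 2.0 ml/min, with MS detection.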
# [9] = system: Nilaparvata lugens; assay: Nilaparvata lugens spray test (NILALU); assay type: in vivo; conditions: 168 h, 7 dat
# Excerpt: Nilaparvata lugens Spray Test (NILALU)
# as §1
# [10] = system: Phaedon cochleariae; assay: Phaedon cochleariae spray test (PHAECO), cabbage leaves, ppm; assay type: in vivo; conditions: 168 h, 4 ppm, 7 dat
# Excerpt: Phaedon cochleariae Spray Test (PHAECO)
# (§3) Solvent: 7 parts by weight of dimethylformamide
# (§4) Emulsifier: 2 parts by weight of alkylaryl polyglycol ether
# as §1
# [11] = system: Tetranychus urticae; assay: Tetranychus urticae spray test, OP-resistant (TETRUR), bean plants, ppm; assay type: in vivo; conditions: 168 h, 7 dat
# Excerpt: Tetranychus urticae Spray Test, OP-Resistant (TETRUR)
# as §3, §4, §1
# [12] = system: Musca domestica; assay: Musca domestica test (MUSCDO); assay type: in vivo
# Description: Musca domestica Test (MUSCDO)
# as §2
# Vessels containing a sponge treated with the active compound preparation of the desired concentration are populated with adult Musca domestica.
# After 2 days, the kill in % is determined.
# Vessels containing a sponge treated with the active compound formulation of the desired concentration are populated with adult Musca domestica.
# After the desired period of time, the kill in % is determined.
# [13] = system: Plutella xylostella; assay: Plutella xylostella spray test (PLUTMA); assay type: in vivo; conditions: 168 h, 7 dat
# Excerpt: Plutella xylostella Spray Test (PLUTMA)
# as §3, §4, §1
# [14] = system: Tetranychus urticae; assay: Tetranychus test, OP-resistant (TETRUR spray treatment), bean leaf discs; assay type: in vivo; conditions: application rate 500 g/ha; after 6 days
# Description: Tetranychus Test, OP-Resistant (TETRUR Spray Treatment)
# After a time of 6 days, the efficacy in % is determined.
# [15] = application rate 500 g/ha, after 7 days
# [16] = Phaedon cochleariae, in Brassica rapa, foliar, 168 h, read-out: % Activity dat
structure (smiles),measurement,setting,value
Cn1nc(C(F)(F)C(F)(F)F)c(C(F)(F)F)c1C(=O)Nc1ccc(Cl)c(C(=O)NC2(C#N)CC2)c1 [Example 10],inhibition at 500 g/ha,[1],100%
same,inhibition at 20 g/ha,"[2]; Myzus persicae, 144 h, MYZUPE, 20 g/ha, 6 dat",80%
same,inhibition at 100 g/ha,"[2]; Myzus persicae, 144 h, MYZUPE, 100 g/ha, 6 dat",100%
same,inhibition at 500 g/ha,"[2]; Myzus persicae, 144 h, MYZUPE, 500 g/ha, 6 dat",100%
same,efficacy in %,"[2]; application rate 500 g/ha, after 6 days",100%
same,kill in % (effect),[3],100%
same,efficacy in % (laying of fertile eggs),[4]; after 7 days,100%
same,inhibition at 100 ppm,"[4]; Rhipicephalus microplus, 168 h, BOOPMI DIP, 7 dat",100%
same,inhibition at 20 g/ha,[5]; 20 g/ha,90%
same,inhibition at 500 g/ha,[5]; 500 g/ha,100%
same,inhibition at 100 g/ha,"[6]; Spodoptera frugiperda, foliar, 168 h, SPODFR, 100 g/ha, 7 dat",100%
same,efficacy in %,[6]; [15],100%
same,inhibition at 20 g/ha,[7]; [16],100%
same,inhibition at 100 g/ha,[7]; [16],100%
same,efficacy in %,[7]; [15],100%
same,chromatographic logP,[8],3.27
same,inhibition at 100 g/ha,[9]; 100 g/ha,100%
same,inhibition at 500 g/ha,[9]; 500 g/ha,100%
same,inhibition at 4 ppm,[10],100%
same,inhibition at 4 ppm,[11]; 4 ppm,100%
same,inhibition at 20 ppm,[11]; 20 ppm,100%
same,kill in % (efficacy),"[12]; 100 ppm, after 2 days",100%
same,inhibition at 100 ppm,"[12]; Musca domestica, 48 h, MUSCDO, 2 dat",100%
same,inhibition at 20 ppm,[13],100%
same,efficacy in %,[14],90%
